Tests used:
[1] = system: histone H3 citrullination in human neutrophils; assay: Citrullination assay in human neutrophils (citrullinated H3 ELISA); format: cell-based; settings: Neutrophil
Description: All blood samples from healthy donors who participated in this study were obtained after informed consent in accordance with relevant guidelines and regulations given by the ACE Independent ethics committee for Jubilant Biosys Ltd and Office of Clinical Investigations at Boston Children’s Hospital. The ACE Independent ethics committee, Bangalore, approved the use of human whole blood/PBMC/Enriched Subset in Jubilant Biosys Ltd investigations, Drug Controller General of India (DCGI) Reg No. ECR/141/Indt/KA/2013. Briefly, 10 mL K2EDTA vacutainers were used to collect fresh blood from healthy donors (BD vacutainer, Catalog No: BD 367525). A total of 50 ml of blood was taken from a single, healthy human donor. Neutrophils were isolated from human blood using the EasySep Direct Human Neutrophil Isolation Kit, according to the manufacturer's instructions (Stem Cell Technology, Catalog No: 19666). […]
Citrullinated H3 Enzyme linked immunosorbent Assay (ELISA) was performed as per manufacturer’s instructions (Cayman chemicals, Catalog No: 501620). Neutrophils obtained as mentioned above were counted and cell suspension was prepared in complete RPMI media. […] IC50 values were determined by sigmoidal dose–response curve (variable slope) in Graph Pad Prism 5 software.

[2] = molecular target: T1, CYP2D6 (Homo sapiens, UniProt P10635); assay: CYP inhibition in human liver microsome, CYP2D6; format: in vitro ADME
T1 construct: from tissue; host or cells: human liver microsomes
T1 sequence (P10635 whole entry): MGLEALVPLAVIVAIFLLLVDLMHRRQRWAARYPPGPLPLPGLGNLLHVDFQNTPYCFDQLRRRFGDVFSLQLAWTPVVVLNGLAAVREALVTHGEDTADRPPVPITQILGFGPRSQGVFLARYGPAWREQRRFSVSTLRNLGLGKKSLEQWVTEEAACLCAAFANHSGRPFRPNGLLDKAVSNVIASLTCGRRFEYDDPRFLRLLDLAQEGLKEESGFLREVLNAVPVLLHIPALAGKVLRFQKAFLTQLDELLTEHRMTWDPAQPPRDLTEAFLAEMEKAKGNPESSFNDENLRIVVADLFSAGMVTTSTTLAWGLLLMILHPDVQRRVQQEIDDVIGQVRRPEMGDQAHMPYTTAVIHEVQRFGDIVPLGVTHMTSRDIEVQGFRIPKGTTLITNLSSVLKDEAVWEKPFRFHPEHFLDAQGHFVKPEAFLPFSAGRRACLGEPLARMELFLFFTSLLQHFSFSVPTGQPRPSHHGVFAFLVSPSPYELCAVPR
Protocol: (§1) CYP inhibition: Human liver microsome (0.1–0.5 mg/mL for various CYPs) and appropriate probe substrates (2.5–20 µM) were incubated in potassium phosphate buffer with or without JBI-589 for 5 min at 37 °C. The reaction was initiated by addition of NADPH (1 mM), incubated at 37 °C for 10 min and quenched (0.5% Formic acid in internal standard (IS) containing ACN). Samples were then centrifuged and taken for LC–MS/MS analysis. Percent change in metabolite formation for each substrate under above conditions using formula: Percent inhibition = [1 − (test area ratio/control area ratio)] *100.

[3] = system: mouse neutrophils; assay: In vitro NET assay, mouse neutrophils; format: cell-based; settings: pretreatment 10 μM for 15 min, ionomycin 4 µM 4 h
Protocol: Mouse peripheral blood was collected by retro-orbital puncture in ethylenediaminetetraacetic acid (EDTA) anticoagulated buffer supplemented with 1% endotoxin-free BSA in sterile PBS. Neutrophils were isolated by Percoll gradient centrifugation as described previously. The purity of neutrophils was more than 90% as confirmed by the Wright-Giemsa stain.
Mouse or human neutrophils were resuspended in HEPES-supplemented phenol red-free RPMI1640 medium and 1.5 × 10^4 cells were seeded per well in a 96-well plate. After incubating for 20 min at 37 °C and 5% CO2, the cells were stimulated with vehicle control or ionomycin (Sigma, Catalog No: I24222) (4 µM) for 4 h. Neutrophils were fixed with 4% paraformaldehyde (PFA), washed and permeabilized (0.1% Triton X-100, 0.1% sodium citrate) for 10 min at 4 °C. Subsequently, neutrophils were incubated with blocking buffer (2.5% BSA, 0.5% Tween-20 in 1 × PBS) at room temperature for an hour followed by overnight incubation with the primary antibody against citrullinated histone H4 (H4Cit, 1:250, catalog number: 07-596, Millipore, Burlington, MA). […] Images were obtained with a Zeiss Axiovert 200 M wide-field fluorescence microscope (Zeiss, Oberkochen, Germany) with the Zeiss AxioVision software. The percentages of H4Cit positive neutrophils and neutrophil extracellular traps (NETs) were calculated by quantifying more than 200 randomly selected cells. […]

[4] = molecular target: T2, CYP2C9 (Homo sapiens, UniProt P11712); assay: CYP inhibition in human liver microsome, CYP2C9; format: in vitro ADME
T2 construct: from tissue; host or cells: human liver microsomes
T2 sequence (P11712 whole entry): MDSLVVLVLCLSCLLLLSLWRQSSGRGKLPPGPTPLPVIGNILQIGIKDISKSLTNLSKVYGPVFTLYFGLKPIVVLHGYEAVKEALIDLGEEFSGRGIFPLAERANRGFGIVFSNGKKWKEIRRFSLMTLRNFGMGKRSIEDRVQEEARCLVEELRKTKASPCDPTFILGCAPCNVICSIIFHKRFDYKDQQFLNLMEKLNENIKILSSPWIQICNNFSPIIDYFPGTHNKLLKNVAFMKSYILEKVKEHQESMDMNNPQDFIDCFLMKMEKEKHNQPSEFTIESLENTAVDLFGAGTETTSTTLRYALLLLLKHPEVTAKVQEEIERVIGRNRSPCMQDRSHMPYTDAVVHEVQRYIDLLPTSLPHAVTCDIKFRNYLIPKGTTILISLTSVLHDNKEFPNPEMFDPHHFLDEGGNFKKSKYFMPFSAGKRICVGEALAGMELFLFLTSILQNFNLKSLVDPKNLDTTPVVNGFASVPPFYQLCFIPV
Protocol: as §1

[5] = molecular target: T3, human recombinant PAD1 (Homo sapiens, UniProt Q9ULC6); assay: PAD1 selectivity biochemical assay measuring ammonia release; settings: 10 semi-log concentrations, highest concentration tested 30 µM
T3 construct: purchased Cayman Chemicals 10784
T3 sequence (Q9ULC6 1-663): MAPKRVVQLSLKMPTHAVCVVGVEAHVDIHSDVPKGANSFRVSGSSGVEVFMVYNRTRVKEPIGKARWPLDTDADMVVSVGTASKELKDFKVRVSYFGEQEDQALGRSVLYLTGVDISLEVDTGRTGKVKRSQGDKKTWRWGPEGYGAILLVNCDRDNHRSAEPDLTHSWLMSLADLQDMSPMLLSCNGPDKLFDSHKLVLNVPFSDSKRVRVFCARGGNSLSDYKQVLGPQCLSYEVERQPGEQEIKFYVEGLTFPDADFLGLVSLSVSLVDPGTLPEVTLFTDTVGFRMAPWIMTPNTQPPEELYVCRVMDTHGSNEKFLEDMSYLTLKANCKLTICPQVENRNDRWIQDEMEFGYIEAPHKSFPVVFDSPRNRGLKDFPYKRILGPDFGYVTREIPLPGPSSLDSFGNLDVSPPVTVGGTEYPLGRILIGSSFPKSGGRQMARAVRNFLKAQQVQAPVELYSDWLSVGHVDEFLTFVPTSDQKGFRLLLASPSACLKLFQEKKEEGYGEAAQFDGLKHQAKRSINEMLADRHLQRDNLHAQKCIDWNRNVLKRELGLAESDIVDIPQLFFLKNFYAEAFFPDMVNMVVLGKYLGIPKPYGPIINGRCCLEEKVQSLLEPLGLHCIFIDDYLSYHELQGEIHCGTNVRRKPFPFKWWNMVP

[6] = system: collagen induced arthritis; assay: Collagen induced arthritis model in DBA/1 mice; format: in vivo; settings: Dexamethasone dose not given
[7] = predicted from % inhibition, text says major CYPs tested
[8] = JBI-589 50 mg/kg po BID, Etanercept 25 mg/kg IP day 31–45

## Cc1c(-c2cc3ccccc3n2Cc2ccc(F)cc2)nc2cc(C(=O)N3CCC[C@@H](N)C3)ccn12 [JBI-589, (R)-(3-aminopiperidin-1-yl)(2-(1-(4-fluorobenzyl)-1H-indol-2-yl)-3-methylimidazo[1,2-a]pyridin-7-yl)methanone]
[1]; Fig. 1c, human neutrophils, calcium ionophore, x axis μM
  IC50: 0.146 µM
[1]; human neutrophils induced by 25 µM calcium ionophore, ELISA, read-out: EC50, inhibition of histone H3 citrullination
  EC50: 0.146 µM
[2]; human liver microsomes, 10 µM, human liver microsome, read-out: CYP2D6 inhibition (% inh @10 µM)
  inhibition at 10 min, 10 µM: < 50%
[2]; [7]
  IC50: > 10 µM
[3]
  H4Cit positivity: markedly diminished
  NET formation: markedly diminished
[4]; human liver microsomes, 10 µM, human liver microsome, read-out: CYP2C9 inhibition (% inh @10 µM)
  inhibition at 10 min, 10 µM: < 50%
[4]; [7]
  IC50: > 10 µM
[5]
  inhibitory activity against PAD1: did not have any inhibitory activity
[6]; JBI-589 50 mg/kg po BID day 0-45, Etanercept 25 mg/kg IP day 31–45
  clinical score: significantly decreased
[6]; [8]
  bone erosion (histopathology): significantly decreased
  joint inflammation (histopathology): significantly decreased
  pannus formation (histopathology): significantly decreased
[6]; day 45, JBI-589 50 mg/kg po BID
  spleen weight: no adverse effect
[6]; end of study, JBI-589 50 mg/kg po BID
  body weight: no adverse effect

Reference: article PMC9950073, “Alleviation of arthritis through prevention of neutrophil extracellular traps by an orally available inhibitor of protein arginine deiminase 4” (Scientific Reports, 2023)
